In brackets after ≈: the same amount, converted by molar mass.
System: Serratia marcescens
Experiment: Antimicrobial activity against Serratia marcescens AW isolated from parotidectomy patient
Type: functional

How did the MIC turn out when `C[C@@H](O)[C@H]1C(=O)N2C(C(=O)O)=C(S[C@@H]3CN[C@H](C(=O)Nc4cccc(C(=O)O)c4)C3)[C@H](C)[C@H]12` [ERTAPENEM] was run?
The MIC was 4 µg/mL (≈ 8.41 µM).

For `C[C@@H](O)[C@H]1C(=O)N2C(C(=O)O)=C(SCCNC=N)C[C@H]12` [IMIPENEM ANHYDROUS], which MIC is on record?
Its MIC is 32 µg/mL (≈ 107 µM).

For `C[C@@H](O)[C@H]1C(=O)N2C(C(=O)O)=C(S[C@@H]3CN[C@H](C(=O)N(C)C)C3)[C@H](C)[C@H]12` [MEROPENEM], which MIC is on record?
Its MIC is 8 µg/mL (≈ 20.9 µM).
